Patent US20100069433A1, “PROPHYLACTIC AND/OR THERAPEUTIC AGENT FOR HYPERLIPIDEMIA” (KOWA COMPANY, LTD., priority 2007, published 2010)

What was measured:
blood glucose level = test: Oral glucose tolerance test in Zucker fatty rats (Example 3); format: in vivo, Male Zucker fatty rats; details: 28 days oral once a day, compound A 0.3 mg/kg, pitavastatin 3 mg/kg, fenofibrate 100 mg/kg
Method: As a method for examining diabetes mellitus, an oral glucose tolerance test, that is, a method in which a test subject fasted overnight is orally fed with a glucose solution, and blood is collected before and after the feeding, to examine the degree of increase in the blood glucose level, is widely performed. Thus, the Zucker fatty rat was used and administered with medicaments, and then an oral glucose tolerance test was performed to investigate the influence of the medicament of the present invention exerted on the blood glucose level. Male Zucker fatty rats (Crlj: ZUC-Lepr^fa, Japan Charles River Co. Ltd., 9 weeks old) were taken for the test. […] Additionally, when the pitavastatin was a hydrate as in the case of the present Example, the water content of a standard product was measured by a conventional method known to those ordinarily skilled in the art, and the amount required in the production of drug based on the water content of the “pitavastatin calcium hydrate” used in the present Example was calculated. […] The blood glucose level was measured by an enzymatic method. […] A risk rate of less than 5% was determined to have a significant difference.

[1] = test system: triglyceride concentration in blood plasma; test: Plasma triglyceride concentration in Zucker fatty rats after repeated oral administration (Example 2); format: in vivo, Male Zucker fatty rats; details: compound A 0.1 mg/kg, pitavastatin 10 mg/kg, fenofibrate 100 mg/kg; for triglyceride concentration in blood plasma, Average value ± Standard error / triglyceride concentration in blood plasma, Relative value compared to control group: two weeks (14th day), oral once a day, N = 7-8; for rate of decrease of the triglyceride concentration in blood plasma: two weeks, vs control group
Method: The effect of administration of compound A and pitavastatin on the plasma triglyceride concentration in this animal model was determined according to the following methods.
Male Zucker fatty rats (Crlj: ZUC-Lepr^fa, Japan Charles River Co. Ltd., 10 weeks old) were taken for the test.
Throughout the test period, the rats were bred in a breeding room maintained with a light/dark cycle (bright period under room light: 7 A.M. to 7 P.M.) at a temperature of 23±3° C. and a humidity of 55±15%, and were allowed to freely take solid feedstuff (CE-2; Oriental Yeast Co. Ltd.) and tap water.
Compound A, pitavastatin and fenofibrate (Sigma-Aldrich Co. Ltd.) were each suspended in a 0.5 mass % aqueous solution of methylcellulose (Metolose (registered trademark) SM-400, Shin-Etsu Chemical Co. Ltd.), and the amount of administration of the aqueous solution was adjusted to be 2 mL/kg. The suspension was stored in a shading bottle under refrigeration (4° C.), and the preparation was carried out once every 7 days. Additionally, when the pitavastatin was a hydrate as in the case of the present Example, the water content of a standard product was measured by a conventional method known to those ordinarily skilled in the art, and the amount required in the production of drug based on the water content of the “pitavastatin calcium hydrate” used in the present Example was calculated.
In order to average the total cholesterol concentration and the triglyceride concentration in blood plasma, the rats were divided into the following six groups (eight animals each group), that is, a control group as a first group, a group administered with compound A only (0.1 mg/kg) as a second group, a group administered with pitavastatin only (10 mg/kg) as a third group, a group administered with fenofibrate only (100 mg/kg) as a fourth group, a group administered with pitavastatin (10 mg/kg) and compound A (0.1 mg/kg) in combination as a fifth group, and a group administered with pitavastatin (10 mg/kg) and fenofibrate (100 mg/kg) in combination as a sixth group.
The two medicaments were orally administered repeatedly for 14 days at a rate of once a day (in the morning). The control group of the first group was orally administered with 2 mL/kg of a 0.5 mass % aqueous solution of methylcellulose.
On the 14th day after the initiation of administration, the rats were fasted for 4 hours from administration, then blood was collected, and the triglyceride concentration in blood plasma was measured by an enzymatic method.
A multiple group comparison between the control group and the drug administered groups was conducted using Dunnett's multiple comparison test. A risk rate of less than 5% was determined to have a significant difference.

[2] = test system: LDL-cholesterol concentration in blood plasma; test: LDL-cholesterol concentration in blood plasma of rats after repeated oral administration (Example 1); format: in vivo, Male Sprague Dawley rats; details: one week after the administration, oral once a day, pitavastatin 10 mg/kg, compound A 0.3 mg/kg, N = 8; for LDL-cholesterol concentration in blood plasma, Average value ± Standard error: in mg/dL
Method: (§1) Male Sprague Dawley rats (Crl: CD (SD), Japan Charles River Co. Ltd., 6 weeks old) were taken for the test. Throughout the test period, the rats were bred in a breeding room maintained with a light/dark cycle (bright period under room light: 7 A.M. to 7 P.M.) at a temperature of 23±3° C. and a humidity of 55±15%, and were allowed to freely take solid feedstuff (CE-2; Oriental Yeast Co. Ltd.) and tap water. Compound A and pitavastatin were each suspended in a 0.5 mass % aqueous solution of methylcellulose (Metolose (registered trademark) SM-400, Shin-Etsu Chemical Co. Ltd.), and the amount of administration of the aqueous solution was adjusted to be 2 mL/kg. The suspension was stored in a shading bottle under refrigeration (4° C.), and the preparation was performed once every 7 days. Additionally, when the pitavastatin is a hydrate as in the case of the present Example, the water content of a standard product can be measured by a conventional method known to those ordinarily skilled in the art, and the amount required in the production of drug based on the water content of the “pitavastatin calcium hydrate” used in the present Example can be calculated. […] The two medicaments were orally administered repeatedly for 14 days at a rate of once a day (in the morning). The control group of the first group was orally administered with 2 mL/kg of a 0.5 mass % aqueous solution of methylcellulose. […] Furthermore, the LDL-cholesterol concentration in blood plasma was measured using high performance liquid chromatography according to the method of Usui et al. (Lipid Res., 43:805-814, 2002). The results were shown in the form of average value±standard error. A multiple group comparison between the control group and the drug administered groups was conducted using Dunnett' s multiple comparison test. A risk rate of less than 5% was determined to have a significant difference.

[3] = test system: triglyceride concentration in blood plasma; test: Triglyceride concentration in blood plasma of rats after repeated oral administration (Example 1); format: in vivo, Male Sprague Dawley rats; details: two weeks after the initiation of administration (14th day), oral once a day, pitavastatin 10 mg/kg, compound A 0.3 mg/kg, N = 8; for triglyceride concentration in blood plasma, Average value ± Standard error: in mg/dL
Method: as §1

[4] = test system: total cholesterol concentration in blood plasma; test: Total cholesterol concentration in blood plasma of rats after repeated oral administration (Example 1); format: in vivo, Male Sprague Dawley rats; details: oral once a day, pitavastatin 10 mg/kg, compound A 0.3 mg/kg, N = 8
Method: as §1

[5] = test system: total plasma cholesterol concentration; details: results of clinical trials; cited from earlier work
[6] = one week after administration (7th day), 4 h fasted
[7] = two weeks after the initiation of administration (14th day)
[8] = two weeks after the initiation of administration (14th day), in mg/dL

Compound | change in blood glucose level over time after glucose loading (FIG. 3A) (blood glucose level) | triglyceride concentration in blood plasma, Average value ± Standard error [1] [mg/dL] | triglyceride concentration in blood plasma, Relative value compared to control group [1] | rate of decrease of the triglyceride concentration in blood plasma [1] [%] | LDL-cholesterol concentration in blood plasma, Relative value compared to control group [2] | LDL-cholesterol concentration in blood plasma, Average value ± Standard error [2] | triglyceride concentration in blood plasma, Relative value compared to control group [3] | triglyceride concentration in blood plasma, Average value ± Standard error [3] | triglyceride concentration in blood plasma, Relative value compared to control group ([3]; listed as compound A) | total cholesterol concentration in blood plasma, Average value ± Standard error [4, 6] [mg/dL] | total cholesterol concentration in blood plasma, Relative value compared to control group ([4]; one week after administration (7th day)) | total cholesterol concentration in blood plasma, Relative value compared to control group ([4]; one week after administration (7th day), listed as compound A) | total cholesterol concentration in blood plasma, Relative value compared to control group [4, 7] | total cholesterol concentration in blood plasma, Average value ± Standard error [4, 8] | rate of improvement in the total plasma cholesterol concentration [5] [%] | triglyceride concentration in blood plasma, Relative value compared to control group ([3]; calcium hydrate) | total cholesterol concentration in blood plasma, Relative value compared to control group ([4]; one week after administration (7th day), calcium hydrate) | total cholesterol concentration in blood plasma, Relative value compared to control group ([4]; one week after administration (7th day), listed as pitavastatin, calcium hydrate)
CC[C@@H](Oc1cccc(CN(CCCOc2ccc(OC)cc2)c2nc3ccccc3o2)c1)C(=O)O [Compound A, (R)-2-[3-[[N-(Benzoxazol-2-yl)-N-3-(4-methoxyphenoxy)propyl]aminomethyl]phenoxy]butyric acid] | rapid increases in the blood glucose level | 518.0 ± 106.0 | 0.798 | 20 | 0.698 | 8.1 ± 0.4 | 0.806 | 33.3 ± 2.2 | 0.942 | 48.3 ± 1.8 | 0.792 | 0.903 | 0.752 | 43.4 ± 1.9 |  |  |  | 
CC(C)OC(=O)C(C)(C)Oc1ccc(C(=O)c2ccc(Cl)cc2)cc1 [Fenofibrate, fenofibrate] |  | 546.3 ± 58.9 | 0.841 | 16 |  |  |  |  |  |  |  |  |  |  |  |  |  | 
O=C(O)C[C@H](O)C[C@H](O)/C=C/c1c(C2CC2)nc2ccccc2c1-c1ccc(F)cc1 [Pitavastatin, pitavastatin calcium hydrate] | rapid increases in the blood glucose level | 612.2 ± 61.0 | 0.943 | 6 | 0.974 | 11.3 ± 1.8 | 0.942 | 38.9 ± 3.1 |  | 55.1 ± 5.7 |  |  | 0.997 | 57.5 ± 6.6 | 93.9 | 0.806 | 0.903 | 0.792
